Columns and labels:
[1] = tested on: SMN2 minigene mRNA (SMN2-A minigene) in HEK293H cells; assay: SMN2 minigene mRNA splicing RT-qPCR assay in cultured cells; format: cell-based, human; conditions: Homo sapiens, HEK293-H; concentration increasing full length SMN2 mRNA 1.5-fold relative to vehicle-treated cells; HEK293H cells with SMN2-A minigene, 24 hours, 7-point concentration data; read-out: EC1.5x for production of full length SMN2 mRNA
Method: The reverse transcription-quantitative PCR-based (RT-qPCR) assay is used to quantify the level of the full length SMN2 minigene mRNA containing SMN2 exon 7 in a HEK293H cell line stably transfected with said minigene and treated with a test compound.
Protocol. HEK293H cells stably transfected with the SMN2-A minigene construct described above (10,000 cells/well) are seeded in 200 μL of cell culture medium (DMEM plus 10% FBS, with 200 μg/mL hygromycin) in 96-well flat-bottom plates and the plate is immediately swirled to ensure proper dispersal of cells, forming an even monolayer of cells. Cells are allowed to attach for at least 4-6 hours. Test compounds are serially diluted 3.16-fold in 100% DMSO to generate a 7-point concentration curve. A solution of test compound (1 μL, 200× in DMSO) is added to each cell-containing well and the plate is incubated for 24 hours in a cell culture incubator (37° C., 5% CO2, 100% relative humidity). 2 replicates are prepared for each test compound concentration. The cells are then lysed in Cells-To-Ct lysis buffer and the lysate is stored at −80° C.
Primer SMN Forward A (SEQ ID NO. 1) hybridizes to a nucleotide sequence in exon 7 (nucleotide 22 to nucleotide 40), primer SMN Reverse A (SEQ ID NO. 2) hybridizes to a nucleotide sequence in the coding sequence of Firefly luciferase, SMN Probe A (SEQ ID NO. 3) hybridizes to a nucleotide sequence in exon 7 (nucleotide 50 to nucleotide 54) and exon 8 (nucleotide 1 to nucleotide 21). The combination of these three oligonucleotides detects only SMN1 or SMN2 minigenes (RT-qPCR) and will not detect endogenous SMN1 or SMN2 genes.
The SMN forward and reverse primers are used at final concentrations of 0.4 μM. The SMN probe is used at a final concentration of 0.15 μM. The GAPDH primers are used at final concentrations of 0.2 μM and the probe at 0.15 μM.
The SMN2-minigene GAPDH mix (15 μL total volume) is prepared by combining 7.5 μL of 2× RT-PCR buffer, 0.4 μL of 25× RT-PCR enzyme mix, 0.75 μL of 20× GAPDH primer-probe mix, 4.0075 μL of water, 2 μL of 10-fold diluted cell lysate, 0.06 μL of 100 μM SMN forward primer, 0.06 μL of 100 μM SMN reverse primer, and […].
PCR is carried out at the following temperatures for the indicated time: Step 1: 48° C. (15 min); Step 2: 95° C. (10 min); Step 3: 95° C. (15 sec); Step 4: 60° C. (1 min); then repeat Steps 3 and 4 for a total of 40 cycles.
Each reaction mixture contains both SMN2-A minigene and GAPDH primers/probe sets (multiplex design), allowing simultaneous measurement of the levels of two transcripts.
Two SMN spliced products are generated from the SMN2 minigene. The first spliced product containing exon 7, corresponding to full length SMN2 mRNA, is referred to herein using the term “SMN2 minigene FL.” The second spliced product lacking exon 7 is referred to herein using the term “SMN2 minigene Δ7.”
The increase of SMN2 minigene FL mRNA relative to that in cells treated with vehicle control is determined from real-time PCR data using a modified ΔΔCt method (as described in Livak and Schmittgen, Methods, 2001, 25:402-8). The amplification efficiency (E) is calculated from the slope of the amplification curve for SMN2 minigene FL and GAPDH individually. The abundances of SMN2 minigene FL and GAPDH are then calculated as (1+E)^−Ct, where Ct is the threshold value for each amplicon. The abundance of SMN2 minigene FL is normalized to GAPDH abundance. The normalized SMN2 minigene FL abundance from test compound-treated samples is then divided by normalized SMN2 minigene FL abundance from vehicle-treated cells to determine the level of SMN2 FL mRNA relative to vehicle control.
For compounds of Formula (I) or a form thereof disclosed herein, Table 4 provides the […] for production of full length SMN2 mRNA that was obtained from the 7-point concentration data generated for each test compound according to the procedure of Biological Example 2. […]

[2] = tested on: Smn protein in SMA patient fibroblast cells (GM03813); assay: Smn protein assay in cultured cells (SMN HTRF); format: cell-based, human; conditions: SMA patient fibroblast cells, 48 hours; for EC1.5x for Smn protein expression: 7-point concentration curve, SMN HTRF, concentration producing 1.5 times Smn protein vs DMSO vehicle control; for maximum fold (Fold) increase of Smn protein: 7-point concentration data, fold relative to vehicle control
Method: The SMN HTRF (homogeneous time resolved fluorescence) assay is used to quantify the level of Smn protein in SMA patient fibroblast cells treated with test compounds.
Protocol. Cells are thawed and cultured in DMEM-10% FBS for 72 hours. Cells are trypsinized, counted and re-suspended to a concentration of 25,000 cells/mL in DMEM-10% FBS. The cell suspension is plated at 5,000 cells per well in a 96 well microtiter plate and incubated for 3 to 5 hours. […] Test compounds are serially diluted 3.16-fold in 100% DMSO to generate a 7-point concentration curve. 1 μL of test compound solution is transferred to cell-containing wells and cells are incubated for 48 hours in a cell culture incubator (37° C., 5% CO2, 100% relative humidity). Triplicate samples are set up for each test compound concentration. After 48 hours, the supernatant is removed from the wells and 25 μL of the RIPA lysis buffer, containing protease inhibitors, is added to the wells and incubated with shaking at room temperature for 1 hour. 25 μL of the diluent is added and then 35 μL of the resulting lysate is transferred to a 384-well plate, where each well contains 5 μL of the antibody solution (1:100 dilution of anti-SMN d2 and anti-SMN kryptate in SMN reconstitution buffer). The plate is centrifuged for 1 minute to bring the solution to the bottom of the wells, then incubated overnight at room temperature. Fluorescence for each well of the plate at 665 nm and 620 nm is measured on an EnVision multilabel plate reader (Perkin-Elmer).
The normalized fluorescence signal is calculated for each sample, Blank and vehicle control well by dividing the signal at 665 nm by the signal at 620 nm. Normalizing the signal accounts for possible fluorescence quenching due to the matrix effect of the lysate. The ΔF value (a measurement of Smn protein abundance as a percent value) for each sample well is calculated by subtracting the normalized average fluorescence for the Blank control wells from the normalized fluorescence for each sample well, then dividing this difference by the normalized average fluorescence for the Blank control wells and multiplying the resulting value by 100. The ΔF value for each sample well represents the Smn protein abundance from test compound-treated samples. The ΔF value for each sample well is divided by the ΔF value for the vehicle control wells to calculate the fold increase in Smn protein abundance relative to the vehicle control.
For compounds of Formula (I) or a form thereof disclosed herein, Table 9 provides the EC1.5× for Smn protein expression that was obtained from the 7-point concentration data generated for each test compound according to the procedure of Biological Example 7. The term “EC1.5× for Smn protein expression” is defined as that concentration of test compound that is effective in producing 1.5 times the amount of Smn protein in an SMA patient fibroblast cell compared to the amount produced from the DMSO vehicle control. An EC1.5× for Smn protein expression between >3 μM and ≤10 μM is indicated by one star (*), an EC1.5× between >1 μM and ≤3 μM is indicated by two stars (**), an EC1.5× between >0.3 μM and ≤1 μM is indicated by three stars (***) and an EC1.5x≤0.3 μM is indicated by four stars (****).
For compounds of Formula (I) or a form thereof disclosed herein, Table 10 provides the maximum fold (Fold) increase of Smn protein that was obtained from the 7-point concentration data generated for each test compound according to the procedure of Biological Example 7. A maximum fold increase of ≤1.2 is indicated by one star (*), a fold increase between >1.2 and ≤1.35 is indicated by two stars (**), a fold increase between >1.35 and ≤1.5 is indicated by three stars (***), a fold increase between >1.5 and ≤1.65 is indicated by four stars (****) and a fold increase >1.65 is indicated by five stars (*****).

| Structure (SMILES) | EC (1.5-fold increase) [1] [µM] | EC1.5x for Smn protein expression [2] | maximum fold (Fold) increase of Smn protein [2] |
| --- | --- | --- | --- |
| COc1ccc(-c2cc(=O)n3cc(OC4CCN(C)CC4)ccc3n2)cc1OC [Compound 235, 2-(3,4-dimethoxyphenyl)-7-[(1-methylpiperidin-4-yl)oxy]-4H-pyrido[1,2-a]pyrimidin-4-one] | 0.3 to 1 | ** (an EC1.5× between >1 μM and ≤3 μM is indicated by two stars (**)) | **** (a fold increase between >1.5 and ≤1.65 is indicated by four stars (****)) |
| Cc1nc2ccc(-c3cc(=O)n4cc(N5CCC(N)CC5)ccc4n3)cc2o1 [Compound 242, 7-(4-aminopiperidin-1-yl)-2-(2-methyl-1,3-benzoxazol-6-yl)-4H-pyrido[1,2-a]pyrimidin-4-one] | < 0.1 | **** (an EC1.5x≤0.3 μM is indicated by four stars (****)) | **** (a fold increase between >1.5 and ≤1.65 is indicated by four stars (****)) |
| Cc1nc2ccc(-c3cc(=O)n4cc(N5C[C@H]6CNC[C@H]6C5)ccc4n3)cc2o1 [Compound 243, 7-[(3aR,6aS)-hexahydropyrrolo[3,4-c]pyrrol-2(1H)-yl]-2-(2-methyl-1,3-benzoxazol-6-yl)-4H-pyrido[1,2-a]pyrimidin-4-one] | < 0.1 | **** (an EC1.5x≤0.3 μM is indicated by four stars (****)) | **** (a fold increase between >1.5 and ≤1.65 is indicated by four stars (****)) |
| Cc1cn2cc(-c3cc(=O)n4cc(N5CCN(C)CC5)ccc4n3)cc(F)c2n1 [Compound 269, 2-(8-fluoro-2-methylimidazo[1,2-a]pyridin-6-yl)-7-(4-methylpiperazin-1-yl)-4H-pyrido[1,2-a]pyrimidin-4-one] | < 0.1 | **** (an EC1.5x≤0.3 μM is indicated by four stars (****)) | ***** (a fold increase >1.65 is indicated by five stars (*****)) |
| Cc1cn2cc(-c3cc(=O)n4cc(N5CCN[C@H](C)C5)ccc4n3)cc(F)c2n1 [Compound 270, 2-(8-fluoro-2-methylimidazo[1,2-a]pyridin-6-yl)-7-[(3R)-3-methylpiperazin-1-yl]-4H-pyrido[1,2-a]pyrimidin-4-one] | < 0.1 | **** (an EC1.5x≤0.3 μM is indicated by four stars (****)) | **** (a fold increase between >1.5 and ≤1.65 is indicated by four stars (****)) |
| Cc1cn2cc(-c3cc(=O)n4cc(N5CCC(N)CC5)ccc4n3)cc(F)c2n1 [Compound 273, 7-(4-aminopiperidin-1-yl)-2-(8-fluoro-2-methylimidazo[1,2-a]pyridin-6-yl)-4H-pyrido[1,2-a]pyrimidin-4-one] | < 0.1 | **** (an EC1.5x≤0.3 μM is indicated by four stars (****)) | ***** (a fold increase >1.65 is indicated by five stars (*****)) |
| Cc1nc2ccc(-c3cc(=O)n4cc(N5CCC(N(C)C)CC5)ccc4n3)cc2s1 [Compound 285, 7-[4-(dimethylamino)piperidin-1-yl]-2-(2-methyl-1,3-benzothiazol-6-yl)-4H-pyrido[1,2-a]pyrimidin-4-one] | < 0.1 | **** (an EC1.5x≤0.3 μM is indicated by four stars (****)) | ***** (a fold increase >1.65 is indicated by five stars (*****)) |
| Cc1nc2ccc(-c3cc(=O)n4cc(C5=CCNCC5)ccc4n3)cc2o1 [Compound 302, 2-(2-methyl-1,3-benzoxazol-6-yl)-7-(1,2,3,6-tetrahydropyridin-4-yl)-4H-pyrido[1,2-a]pyrimidin-4-one] | < 0.1 | **** (an EC1.5x≤0.3 μM is indicated by four stars (****)) | ***** (a fold increase >1.65 is indicated by five stars (*****)) |

Reference: patent US11753407B2, “Compounds for treating spinal muscular atrophy” (PTC Therapeutics, Inc., priority 2012, dated 2023)
